Test results: PMC12036557, “Functional Imaging of CYP3A4 at Multiple Dimensions Using an AI‐Driven High Performance Fluorogenic Substrate” (Small (Weinheim an Der Bergstrasse, Germany), 2025)
Like-named read-outs stand apart in the source and are kept apart here.

Columns and labels:
hCYP3A4 in HLMs [1] = target: T1, hCYP3A4 in HLMs (Homo sapiens, UniProt P08684); assay: NFa-based screening and characterizing of hCYP3A4 inhibitors in HLMs; settings: inhibitor 1 μM, HLMs, NFa as fluorogenic substrate
T1 sequence (P08684 whole entry): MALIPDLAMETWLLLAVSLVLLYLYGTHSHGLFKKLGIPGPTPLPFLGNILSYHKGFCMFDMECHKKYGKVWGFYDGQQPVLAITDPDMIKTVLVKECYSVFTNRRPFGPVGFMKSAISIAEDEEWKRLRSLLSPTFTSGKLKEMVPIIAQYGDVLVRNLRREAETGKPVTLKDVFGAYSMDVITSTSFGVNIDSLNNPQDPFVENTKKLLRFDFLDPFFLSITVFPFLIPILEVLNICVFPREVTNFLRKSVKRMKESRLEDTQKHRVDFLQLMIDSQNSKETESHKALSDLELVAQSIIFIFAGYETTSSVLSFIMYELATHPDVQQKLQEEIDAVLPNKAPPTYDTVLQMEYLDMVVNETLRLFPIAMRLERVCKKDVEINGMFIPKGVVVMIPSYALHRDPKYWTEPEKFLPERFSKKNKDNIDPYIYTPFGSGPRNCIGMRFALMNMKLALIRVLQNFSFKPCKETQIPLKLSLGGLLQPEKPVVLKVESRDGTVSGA

[2] = Metabolic stability assay of 4-HNFa in phase II metabolizing system; type: in vitro ADME; settings: human, pH 7.4; HLMs in the presence of UDPGA; read-out: metabolic half-life t1/2
[3] = test system: MCF‐7, Hep3B, and U87 cells; assay: Cytotoxicity assays; type: cell-based
[4] = Optical properties, photostability and pH stability of NFa and 4-HNFa; type: physicochemical; design: maximum UV absorption: unit not given here
CYP3A4 [5] = target: T2, CYP3A4 (Homo sapiens, UniProt P08684); design: expressed in transfected cells; host or cells: CHO-3A4 stably transfected cell line; settings: cited from earlier work; for Specificity / cell-membrane permeability (Shortages): previously reported fluorescent substrates; for Specificity: ref 7-10 of the supplement; for cell-membrane permeability (Shortages): 9 of the supplement
T2 sequence (P08684 whole entry): as above

hCYP3A4 in HLMs [6] = target: T1, hCYP3A4 in HLMs; settings: 1 µM
[7] = test system: panel of human recombinant cytochrome P450 enzymes; assay: P450 reaction phenotyping analysis; type: biochemical; settings: each recombinant CYP 2.5 nM, 37 °C, 30 min
CYP3A4 [8] = target: T2, CYP3A4; assay: Enzyme kinetic analyses of NFs 4-hydroxylation by hCYP3A4; type: biochemical; design: purchased Cypex
CYP3A4 [9] = target: T2, CYP3A4; assay: in vitro; settings: pH 7.4

CC(C)=CCCC(C)(O)[C@H]1CC[C@]2(C)[C@@H]1[C@H](O)C[C@@H]1[C@@]3(C)CC[C@H](O)C(C)(C)[C@@H]3CC[C@]12C (stereo in doubt) [Protopanaxadiol]
Residual activity (hCYP3A4 in HLMs [1]): 69.66%

O=C1c2cccc3c(O)ccc(c23)C(=O)N1Cc1cscn1 [4-HNFa, 4-Hydroxyl-N-(4-thiazolemethanamino)-naphtahlimide]
half-life at 20 μM [2]: 58.6 min | cytotoxicity [3]: weak cytotoxicity | Fluorescence quantum yield Φf [4]: 0.129 | Molar extinction coefficient ε [4]: 25300 M⁻¹ cm⁻¹ | maximum UV absorption [4]: 450 | maximum fluorogenic emission [4]: 555 nm | pH range of stable fluorescence signals ≈555 nM ([4]; 2 μM): 6.5–12.0 | photostability ([4]; continuous illumination at 450 nm): good photostability

O=c1ccc2ccc(O)cc2o1 [7‐hydroxycoumarin, reference compound]
half-life at 20 μM [2]: 16.9 min

COc1ccc(-c2oc3c(CC=C(C)C)c(O)cc(O)c3c(=O)c2O)cc1 [Anhydroicaritin]
Residual activity (hCYP3A4 in HLMs [1]): 87.82%

O=C1c2c(O)cc(O)cc2O[C@H](c2ccc(O)cc2)[C@H]1O [Aromadendrin]
Residual activity (hCYP3A4 in HLMs [1]): 91.70%

O=c1cc(C(F)(F)F)c2ccc(OCc3ccccc3)cc2o1 [BFC, 7-benzyloxy-4-trifluoromethylcoumarin]
Specificity (CYP3A4 [5]): CYP3A4 non-specific substrate

CC(C)=CCc1cc(C(=O)/C=C/c2ccc(O)cc2)c(O)cc1O [Bavachalcone]
Residual activity (hCYP3A4 in HLMs [1]): 90.43%

O=c1ccc2nc3ccc(OCc4ccccc4)cc3oc-2c1 [BzRes, 7-benzyloxyresorufin]
cell-membrane permeability (Shortages) (CYP3A4 [5]): low cell-membrane permeability; unavailable in vivo | Specificity (CYP3A4 [5]): CYP3A4 non-specific substrate

O=C(OCc1ccccc1)c1ccccc1-c1c2ccc(=O)cc-2oc2cc(OCc3ccccc3)ccc12 [DBF, dibenzylfluorescein]
Specificity (CYP3A4 [5]): CYP2C8, CYP3A4, CYP3A5

COc1cc2c(cc1O)[C@@H](Cc1ccc(O)c(Oc3ccc(C[C@@H]4c5cc(OC)c(OC)cc5CCN4C)cc3)c1)N(C)CC2 [Daurisoline]
Residual activity (hCYP3A4 in HLMs [1]): 91.85%

COc1cc2c(cc1OC)-c1cc3ccc4c(c3c[n+]1CC2)OCO4 [Epiberberine]
Residual activity (hCYP3A4 in HLMs [1]): 89.82%

CCN1C[C@]2(OC(=O)c3ccccc3NC(C)=O)CC[C@H](OC)[C@@]34[C@@H]2C[C@@H]([C@@H]13)[C@@]1(O)C[C@H](OC)[C@H]2C[C@@H]4[C@]1(O)[C@H]2OC [Lappaconitine]
Residual activity (hCYP3A4 in HLMs [1]): 94.46%

C=CC(C)(C)c1cc(/C=C/C(=O)c2ccc(O)cc2)c(OC)cc1O [Licochalcone A]
Residual activity (hCYP3A4 in HLMs [1]): 39.20%

COc1c(/C=C/C(=O)c2ccc(O)cc2)ccc(O)c1CC=C(C)C [Licochalcone C]
Residual activity (hCYP3A4 in HLMs [6]): 59.04%

O=C1C[C@@H](c2ccc(O)cc2)Oc2cc(O)ccc21 [Liquiritigenin]
Residual activity (hCYP3A4 in HLMs [1]): 90.60%

COc1ccc(-c2cc(=O)c3c(O)c(OC)c(O)c(OC)c3o2)cc1 [Lysionotin]
Residual activity (hCYP3A4 in HLMs [1]): 96.88%

CCN1C(=O)c2cccc3cccc(c23)C1=O [NEN, N‐ethyl‐1,8‐naphthalimide]
cell‐membrane permeability (CYP3A4 [5]): very poor cell‐membrane permeability | cell-membrane permeability (Shortages) (CYP3A4 [5]): low cell-membrane permeability; unavailable in vivo | Specificity (CYP3A4 [5]): CYP3A4 specific substrate

Cc1nc(CN2C(=O)c3cccc4cccc(c34)C2=O)cs1 [NFb, N-(2-Methyl-4-thiazolemethanamino)-naphtahlimide]
isoform specificity as P450 substrate [7]: highly specific substrates for hCYP3A4 | CL int (V max/K m) (CYP3A4 [8]): 558 µL min^−1/nmol hCYP3A4 | K m (CYP3A4 [8]): 7.51 ± 0.49 µM

CC(C)c1nc(CN2C(=O)c3cccc4cccc(c34)C2=O)cs1 [NFd, N-(2-Isopropyl-4-thiazolemethanamino)-naphtahlimide]
isoform specificity as P450 substrate [7]: highly specific substrates for hCYP3A4 | CL int (V max/K m) (CYP3A4 [8]): 504 µL min^−1/nmol hCYP3A4 | K m (CYP3A4 [8]): 4.17 ± 0.21 µM

COc1cc2c(=O)n(C)c3c4cc5c(cc4ccc3c2cc1OC)OCO5 [Oxynitidine]
Residual activity (hCYP3A4 in HLMs [1]): 89.98%

CC(C)=CCC[C@](C)(O)[C@H]1CC[C@]2(C)[C@@H]1[C@H](O)C[C@@H]1[C@@]3(C)CC[C@H](O)C(C)(C)[C@@H]3[C@@H](O)C[C@]12C [Protopanaxatriol]
Residual activity (hCYP3A4 in HLMs [1]): 43.85%

O=C1C=CC[C@@H]2[C@H]3CCCN4CCC[C@@H](CN12)[C@@H]34 [Sophocarpine]
activity at 30 min, 1 µM (CYP3A4 [9]): 94.1%

O=C1C[C@@H]2OCC=C3CN4CC[C@]56c7ccccc7N1[C@H]5[C@H]2[C@H]3C[C@H]46 [Strychnine]
activity at 30 min, 1 µM (CYP3A4 [9]): 96.3%

COc1ccc2cc1Oc1ccc(cc1)C[C@H]1c3cc(c(OC)cc3CCN1C)Oc1c(OC)c(OC)cc3c1[C@H](C2)N(C)CC3 [Tetrandrine]
activity at 30 min, 1 µM (CYP3A4 [9]): 95.2%

Sanggenone C
Residual activity (hCYP3A4 in HLMs [6]): 92.64%
